Experimental data as given in patent publication US9693556B2, “Herbicidal pyridazinone derivatives” (SYNGENTA LIMITED, priority 2011, dated 2017).

What was measured:
Assay type in all cases: in vivo
[1] = system: Alopecurus myosuroides (ALOMY); test: Pre-emergence herbicidal glasshouse test on Alopecurus myosuroides; details: pre-emergence; 1000 g/h; evaluated after 13 days
Outline: (§1)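 Pre-emergence treatment came one day after sowing, post-emergence treatment after eight days' growth; both used 1000 g/h in a 0.5% Tween 20 acetone/water vehicle. Percent damage, scored 1–5, was read 13 days later.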

Setaria faberi (SETFA) [2] = test: Pre-emergence herbicidal glasshouse test on Setaria faberi; details: pre-emergence; 1000 g/h; evaluated after 13 days
Outline: as §1

[3] = system: Echinochloa crus-galli (ECHCG); test: Pre-emergence herbicidal glasshouse test on Echinochloa crus-galli; details: pre-emergence; 1000 g/h; evaluated after 13 days
Outline: as §1

Solanum nigrum (SOLNI) [4] = test: Pre-emergence herbicidal glasshouse test on Solanum nigrum; details: pre-emergence; 1000 g/h; evaluated after 13 days
Outline: as §1

[5] = system: Amaranthus retoflexus (AMARE); test: Pre-emergence herbicidal glasshouse test on Amaranthus retoflexus; details: pre-emergence; 1000 g/h; evaluated after 13 days
Outline: as §1

[6] = system: Ipomoea hederacea (IPOHE); test: Pre-emergence herbicidal glasshouse test on Ipomoea hederacea; details: pre-emergence; 1000 g/h; evaluated after 13 days
Outline: as §1

[7] = system: Alopecurus myosuroides (ALOMY); test: Post-emergence herbicidal glasshouse test on Alopecurus myosuroides; details: post-emergence; 1000 g/h; evaluated after 13 days
Outline: as §1

Setaria faberi (SETFA) [8] = test: Post-emergence herbicidal glasshouse test on Setaria faberi; details: post-emergence; 1000 g/h; evaluated after 13 days
Outline: as §1

[9] = system: Echinochloa crus-galli (ECHCG); test: Post-emergence herbicidal glasshouse test on Echinochloa crus-galli; details: post-emergence; 1000 g/h; evaluated after 13 days
Outline: as §1

Solanum nigrum (SOLNI) [10] = test: Post-emergence herbicidal glasshouse test on Solanum nigrum; details: post-emergence; 1000 g/h; evaluated after 13 days
Outline: as §1

[11] = system: Amaranthus retoflexus (AMARE); test: Post-emergence herbicidal glasshouse test on Amaranthus retoflexus; details: post-emergence; 1000 g/h; evaluated after 13 days
Outline: as §1

[12] = system: Ipomoea hederacea (IPOHE); test: Post-emergence herbicidal glasshouse test on Ipomoea hederacea; details: post-emergence; 1000 g/h; evaluated after 13 days
Outline: as §1

Row | SMILES | PRE Application ALOMY herbicidal damage (five point scale) [1] | PRE Application SETFA herbicidal damage (five point scale) (Setaria faberi (SETFA) [2]) | PRE Application ECHCG herbicidal damage (five point scale) [3] | PRE Application SOLNI herbicidal damage (five point scale) (Solanum nigrum (SOLNI) [4]) | PRE Application AMARE herbicidal damage (five point scale) [5] | PRE Application IPOHE herbicidal damage (five point scale) [6] | POST Application ALOMY herbicidal damage (five point scale) [7] | POST Application SETFA herbicidal damage (five point scale) (Setaria faberi (SETFA) [8]) | POST Application ECHCG herbicidal damage (five point scale) [9] | POST Application SOLNI herbicidal damage (five point scale) (Solanum nigrum (SOLNI) [10]) | POST Application AMARE herbicidal damage (five point scale) [11] | POST Application IPOHE herbicidal damage (five point scale) [12]
1 | CC(=O)Oc1c(-c2ccc(C(F)(F)F)cc2S(C)(=O)=O)cnn(C)c1=O [Compound 3.001, [2-methyl-5-[2-methylsulfonyl-4-(trifluoromethyl)phenyl]-3-oxo-pyridazin-4-yl]acetate] | 5 (5=80-100% damage) | 5 (5=80-100% damage) | 5 (5=80-100% damage) | 5 (5=80-100% damage) | 5 (5=80-100% damage) | 5 (5=80-100% damage) | 5 (5=80-100% damage) | 5 (5=80-100% damage) | 5 (5=80-100% damage) | 5 (5=80-100% damage) | 5 (5=80-100% damage) | 5 (5=80-100% damage)
2 | Cn1ncc(-c2ccc(C(F)(F)F)cc2S(C)(=O)=O)c(OC(=O)c2ccccc2)c1=O [Compound 3.002] | 5 (5=80-100% damage) | 5 (5=80-100% damage) | 5 (5=80-100% damage) | 5 (5=80-100% damage) | 5 (5=80-100% damage) | 5 (5=80-100% damage) | 5 (5=80-100% damage) | 5 (5=80-100% damage) | 5 (5=80-100% damage) | 5 (5=80-100% damage) | 5 (5=80-100% damage) | 5 (5=80-100% damage)
3 | COC(=O)Oc1c(-c2ccc(C(F)(F)F)cc2S(C)(=O)=O)cnn(C)c1=O [Compound 3.003, Methyl [2-methyl-5-[2-methylsulfonyl-4-(trifluoromethyl)phenyl]-3-oxo-pyridazin-4-yl]carbonate] | 5 (5=80-100% damage) | 5 (5=80-100% damage) | 5 (5=80-100% damage) | 5 (5=80-100% damage) | 5 (5=80-100% damage) | 5 (5=80-100% damage) | 5 (5=80-100% damage) | 5 (5=80-100% damage) | 5 (5=80-100% damage) | 5 (5=80-100% damage) | 5 (5=80-100% damage) | 5 (5=80-100% damage)
4 | CCSC(=O)Oc1c(-c2ccc(C(F)(F)F)cc2S(C)(=O)=O)cnn(C)c1=O [Compound 3.004, [2-methyl-5-[2-methylsulfonyl-4-(trifluoromethyl)phenyl]-3-oxo-pyridazin-4-yl]ethylsulfanylformate] | 5 (5=80-100% damage) | 5 (5=80-100% damage) | 5 (5=80-100% damage) | 5 (5=80-100% damage) | 5 (5=80-100% damage) | 5 (5=80-100% damage) | 5 (5=80-100% damage) | 5 (5=80-100% damage) | 5 (5=80-100% damage) | 5 (5=80-100% damage) | 5 (5=80-100% damage) | 5 (5=80-100% damage)
5 | CCCS(=O)(=O)Oc1c(-c2ccc(C(F)(F)F)cc2S(C)(=O)=O)cnn(C)c1=O [Compound 3.005, [2-methyl-5-[2-methylsulfonyl-4-(trifluoromethyl)phenyl]-3-oxo-pyridazin-4-yl]propane-1-sulfonate] | 5 (5=80-100% damage) | 5 (5=80-100% damage) | 5 (5=80-100% damage) | 5 (5=80-100% damage) | 5 (5=80-100% damage) | 4 (4=60-79% damage) | 5 (5=80-100% damage) | 5 (5=80-100% damage) | 5 (5=80-100% damage) | 5 (5=80-100% damage) | 5 (5=80-100% damage) | 5 (5=80-100% damage)
6 | Cc1ccc(S(=O)(=O)Oc2c(-c3ccc(C(F)(F)F)cc3S(C)(=O)=O)cnn(C)c2=O)cc1 [Compound 3.006, [2-methyl-5-[2-methylsulfonyl-4-(trifluoromethyl)phenyl]-3-oxo-pyridazin-4-yl]4-methylbenzenesulfonate] | 5 (5=80-100% damage) | 5 (5=80-100% damage) | 5 (5=80-100% damage) | 5 (5=80-100% damage) | 5 (5=80-100% damage) | 4 (4=60-79% damage) | 5 (5=80-100% damage) | 5 (5=80-100% damage) | 5 (5=80-100% damage) | 5 (5=80-100% damage) | 5 (5=80-100% damage) | 5 (5=80-100% damage)
7 | CCn1ncc(-c2ccc(C(F)(F)F)nc2S(C)(=O)=O)c(O)c1=O [Compound 4.001] | 5 (5=80-100% damage) | 5 (5=80-100% damage) | 5 (5=80-100% damage) | 5 (5=80-100% damage) | 5 (5=80-100% damage) | 5 (5=80-100% damage) | 5 (5=80-100% damage) | 5 (5=80-100% damage) | 5 (5=80-100% damage) | 5 (5=80-100% damage) | 5 (5=80-100% damage) | 5 (5=80-100% damage)
